Laboratory results: BindingDB's records for doi:10.1021/acs.jmedchem.9b01967 (The University of Tokyo, 2020)

Assay: Inhibition of ATX (unknown origin)-mediated cell migration in human MDA-MB-231 cells assessed as reduction in cell motility after 3 hrs by Diff-Quick staining based microplate reader analysis

IC50: 30 nM
Structure (SMILES): CCCCCCn1c(C)cc(=O)n2cc(-c3ccc(Cl)cc3)nc12
